Results as given in patent US20110039721A1, “METHOD FOR PREDICTION ABOUT CARCINOGENICITY OF SUBSTANCE IN RODENT” (Chemicals Evaluation and Research Institute, priority 2007, published 2011).

What was measured:
rodent = settings: classification of the substance (C+/C−); cited from earlier work
liver = settings: classification of the substance (Cr+/Cr−); cited from earlier work
[1] = classification of the substance (M+/M−); cited from earlier work
[2] = tested on: mRNA expressed from the genes (A) to (D) in rat liver; assay: Behavior of genes (mRNA expression level, oligo-DNA microarray) in rat liver after 28-day oral administration; assay type: in vivo; settings: mRNA vs vehicle control group
In short: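 Liver mRNA measured by oligo-DNA microarray after 28 days of once-daily oral gavage in 5-week-old male F344 rats (n=4 per group), with vehicle controls given equal solvent volume. Significance threshold: 1.5-fold up or down versus control, with changes opposite in direction to other carcinogens counted as not significant.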

[3] = gene group (A), Unigene No. Rn.167075
[4] = gene group (C), Unigene No. Rn.120914

## C#C[C@]1(O)CC[C@H]2[C@@H]3CCc4cc(O)ccc4[C@H]3CC[C@@]21C [TS019, Ethinylestradiol]
rodent
  Carcinogenicity: C+
liver
  Liver carcinogenicity: Cr+
[1]
  Mutagenicity by Ames test: M−
[2]; gene group (A), Unigene No. Rn.144554
  Behavior of gene caused by administration of chemical substance, Gene No. 4846: +
[2]; [3]
  Behavior of gene caused by administration of chemical substance, Gene No. 2026: −
  Behavior of gene caused by administration of chemical substance, Gene No. 4218: −
[2]; gene group (A), Unigene No. Rn.5834
  Behavior of gene caused by administration of chemical substance, Gene No. 6182: +
[2]; gene group (A), Unigene No. Rn.9836
  Behavior of gene caused by administration of chemical substance, Gene No. 5600: −
[2]; gene group (B), Unigene No. Rn.1430
  Behavior of gene caused by administration of chemical substance, Gene No. 1494: −
[2]; gene group (B), Unigene No. Rn.19329
  Behavior of gene caused by administration of chemical substance, Gene No. 2045: −
[2]; gene group (B), Unigene No. Rn.21240
  Behavior of gene caused by administration of chemical substance, Gene No. 2203: +
[2]; gene group (C), Unigene No. Rn.106184
  Behavior of gene caused by administration of chemical substance, Gene No. 533: +
[2]; gene group (C), Unigene No. Rn.108075
  Behavior of gene caused by administration of chemical substance, Gene No. 725: +
[2]; gene group (C), Unigene No. Rn.11766
  Behavior of gene caused by administration of chemical substance, Gene No. 1163: +
[2]; gene group (C), Unigene No. Rn.118529
  Behavior of gene caused by administration of chemical substance, Gene No. 4973: +
[2]; gene group (C), Unigene No. Rn.119024
  Behavior of gene caused by administration of chemical substance, Gene No. 4095: +
[2]; [4]
  Behavior of gene caused by administration of chemical substance, Gene No. 1334: +
  Behavior of gene caused by administration of chemical substance, Gene No. 6620: +
[2]; gene group (C), Unigene No. Rn.123063
  Behavior of gene caused by administration of chemical substance, Gene No. 6303: +
[2]; gene group (C), Unigene No. Rn.143213
  Behavior of gene caused by administration of chemical substance, Gene No. 5878: +
[2]; gene group (C), Unigene No. Rn.144946
  Behavior of gene caused by administration of chemical substance, Gene No. 1131: +
[2]; gene group (C), Unigene No. Rn.14744
  Behavior of gene caused by administration of chemical substance, Gene No. 1562: +
[2]; gene group (C), Unigene No. Rn.1647
  Behavior of gene caused by administration of chemical substance, Gene No. 1741: +
[2]; gene group (C), Unigene No. Rn.164817
  Behavior of gene caused by administration of chemical substance, Gene No. 893: +
[2]; gene group (C), Unigene No. Rn.167685
  Behavior of gene caused by administration of chemical substance, Gene No. 6026: +
[2]; gene group (C), Unigene No. Rn.185941
  Behavior of gene caused by administration of chemical substance, Gene No. 154: +
[2]; gene group (C), Unigene No. Rn.18728
  Behavior of gene caused by administration of chemical substance, Gene No. 1993: +
[2]; gene group (C), Unigene No. Rn.201760
  Behavior of gene caused by administration of chemical substance, Gene No. 813: −
[2]; gene group (C), Unigene No. Rn.23969
  Behavior of gene caused by administration of chemical substance, Gene No. 2494: +
[2]; gene group (C), Unigene No. Rn.24561
  Behavior of gene caused by administration of chemical substance, Gene No. 2546: +
[2]; gene group (C), Unigene No. Rn.43232
  Behavior of gene caused by administration of chemical substance, Gene No. 3776: +
[2]; gene group (C), Unigene No. Rn.4620
  Behavior of gene caused by administration of chemical substance, Gene No. 3929: +
[2]; gene group (C), Unigene No. Rn.9757
  Behavior of gene caused by administration of chemical substance, Gene No. 1119: +
[2]; gene group (C), Unigene No. Rn.9779
  Behavior of gene caused by administration of chemical substance, Gene No. 6742: −
[2]; gene group (C), Unigene No. Rn.9862
  Behavior of gene caused by administration of chemical substance, Gene No. 5634: +
[2]; gene group (D), Unigene No. Rn.9939
  Behavior of gene caused by administration of chemical substance, Gene No. 5726: −
